From US7582760B2, “Benzimidazolone and dihydroindolone derivatives and uses thereof” (Roche Palo Alto LLC, priority 2005, dated 2009)
Structures can show the parent of a compound that is named as a salt.

Legend:
[1] = biological target: T1, recombinant human 5-HT2A receptor (Homo sapiens, UniProt P28223); assay: Radioligand binding, competition for [3H]Ketanserin in CHO-K1 cell membranes; settings: [3H]Ketanserin displacement, read-out: pKi for the 5-HT2A receptor (converted)
T1 construct: expressed in transfected cells; membranes
T1 sequence (P28223 whole entry): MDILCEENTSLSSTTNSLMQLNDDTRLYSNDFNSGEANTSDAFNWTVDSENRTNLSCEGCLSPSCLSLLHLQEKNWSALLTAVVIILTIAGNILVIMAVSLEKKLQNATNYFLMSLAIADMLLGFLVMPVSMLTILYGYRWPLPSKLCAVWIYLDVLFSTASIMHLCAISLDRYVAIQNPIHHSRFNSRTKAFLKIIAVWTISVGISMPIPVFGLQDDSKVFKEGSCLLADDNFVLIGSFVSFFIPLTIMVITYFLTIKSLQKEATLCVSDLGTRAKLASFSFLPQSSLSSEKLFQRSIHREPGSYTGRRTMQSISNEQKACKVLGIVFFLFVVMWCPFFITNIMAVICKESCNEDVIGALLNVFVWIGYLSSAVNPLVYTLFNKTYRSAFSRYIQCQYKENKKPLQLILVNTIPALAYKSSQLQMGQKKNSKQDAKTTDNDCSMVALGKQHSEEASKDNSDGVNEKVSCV
Description: (§1) The binding activity of compounds of this invention in vitro was determined as follows. Duplicate determinations of 5-HT6 ligand affinity were made by competing for binding of [^3H]LSD in cell membranes derived from HEK293 cells stably expressing recombinant human 5-HT6 receptor. Duplicate determinations of 5-HT2A ligand affinity were made by competing for binding of [^3H]Ketanserin (3-(2-(4-(4-fluorobenzoyl)piperidinol)ethyl)-2,4(1H,3H)-quinazolinedione) in cell membranes derived from CHO-K^1 cells stably expressing recombinant human 5-HT2A receptor. Membranes were prepared from HEK 293 cell lines by the method described by Monsma et al., Molecular Pharmacology, Vol. 43 pp. 320-327 (1993), and from CHO-K1 cell lines as described by Bonhaus et al., Br J. Pharmacol. June; 115(4):622-8 (1995).
(§2) For estimation of affinity at the 5-HT6 receptor, all determinations were made in assay buffer containing 50 mM Tris-HCl, 10 mM MgSO4, 0.5 mM EDTA, 1 mM ascorbic acid, pH 7.4 at 37° C., in a 250 microliter reaction volume. […]
(§3) Assay tubes containing [^3H] […] LSD or [^3H]Ketanserin were determined as radioactive counts per minute using Packard TopCount.
(§4) Displacement of [^3H]LSD or [^3H]Ketanserin from the binding sites was quantified by fitting concentration-binding data to a 4-parameter logistic equation: […]

[2] = biological target: T2, recombinant human 5-HT6 receptor (Homo sapiens, UniProt P50406); assay: Radioligand binding, competition for [3H]LSD in HEK293 cell membranes; settings: receptor not printed for this value in the sentence; radioligand binding of Example 13
T2 construct: expressed in transfected cells; membranes
T2 sequence (P50406 whole entry): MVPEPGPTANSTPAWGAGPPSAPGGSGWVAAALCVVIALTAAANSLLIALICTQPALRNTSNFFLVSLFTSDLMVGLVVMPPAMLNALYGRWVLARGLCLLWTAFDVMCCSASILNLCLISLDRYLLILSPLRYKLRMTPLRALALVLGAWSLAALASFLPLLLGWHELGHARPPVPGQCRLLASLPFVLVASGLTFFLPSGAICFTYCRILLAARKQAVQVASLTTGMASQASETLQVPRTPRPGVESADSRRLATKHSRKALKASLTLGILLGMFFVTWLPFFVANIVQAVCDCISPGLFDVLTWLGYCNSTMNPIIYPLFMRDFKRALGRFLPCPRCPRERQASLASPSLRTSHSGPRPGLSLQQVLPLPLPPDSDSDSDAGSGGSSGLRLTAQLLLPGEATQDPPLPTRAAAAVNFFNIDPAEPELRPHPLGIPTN
Description: as §1, §2, §3, §4

melting point [°C] | Compound | other results
210 to 216.6 | O=c1[nH]c2c(OCC3CNC3)cccc2n1Cc1ccccc1 (as salt: hydrochloride) | –
181 to 184 | O=c1[nH]c2c(OC3CNC3)cccc2n1Cc1ccccc1 | –

The remaining lines, values behind:

Compound | melting point [°C] | other results
O=C1Cc2c(N3CCNCC3)cccc2N1Cc1ccc(F)c(F)c1 [1-(3,4-Difluoro-benzyl)-4-piperazin-1-yl-1,3-dihydro-indol-2-one] | – | Ki [1]: ~0.331 nM
CNCCOc1cccc2c1n(C)c(=O)n2Cc1ccccc1 (as salt: hydrochloride) | 203.8 to 205.1 | –
O=c1[nH]c2c(N3CCNCC3)ccc(Cl)c2n1Cc1cccc(F)c1 [7-Chloro-1-(3-fluoro-benzyl)-4-piperazin-1-yl-1,3-dihydro-benzoimidazol-2-one] | – | Ki [2]: ~0.331 nM
